Results from patent publication US12187723B2 (BRISTOL-MYERS SQUIBB COMPANY, priority 2019, dated 2025).

target: T1, human TLR9 (Homo sapiens, UniProt Q9NR96); assay: TLR9 inhibition reporter assay (HEK-Blue SEAP); assay type: cell-based; conditions: HEK-Blue cells overexpressing human TLR9, ODN2006 5 nM, 22 hour incubation
T1 construct: host or cells: HEK-Blue cells
T1 sequence (Q9NR96 26-1032): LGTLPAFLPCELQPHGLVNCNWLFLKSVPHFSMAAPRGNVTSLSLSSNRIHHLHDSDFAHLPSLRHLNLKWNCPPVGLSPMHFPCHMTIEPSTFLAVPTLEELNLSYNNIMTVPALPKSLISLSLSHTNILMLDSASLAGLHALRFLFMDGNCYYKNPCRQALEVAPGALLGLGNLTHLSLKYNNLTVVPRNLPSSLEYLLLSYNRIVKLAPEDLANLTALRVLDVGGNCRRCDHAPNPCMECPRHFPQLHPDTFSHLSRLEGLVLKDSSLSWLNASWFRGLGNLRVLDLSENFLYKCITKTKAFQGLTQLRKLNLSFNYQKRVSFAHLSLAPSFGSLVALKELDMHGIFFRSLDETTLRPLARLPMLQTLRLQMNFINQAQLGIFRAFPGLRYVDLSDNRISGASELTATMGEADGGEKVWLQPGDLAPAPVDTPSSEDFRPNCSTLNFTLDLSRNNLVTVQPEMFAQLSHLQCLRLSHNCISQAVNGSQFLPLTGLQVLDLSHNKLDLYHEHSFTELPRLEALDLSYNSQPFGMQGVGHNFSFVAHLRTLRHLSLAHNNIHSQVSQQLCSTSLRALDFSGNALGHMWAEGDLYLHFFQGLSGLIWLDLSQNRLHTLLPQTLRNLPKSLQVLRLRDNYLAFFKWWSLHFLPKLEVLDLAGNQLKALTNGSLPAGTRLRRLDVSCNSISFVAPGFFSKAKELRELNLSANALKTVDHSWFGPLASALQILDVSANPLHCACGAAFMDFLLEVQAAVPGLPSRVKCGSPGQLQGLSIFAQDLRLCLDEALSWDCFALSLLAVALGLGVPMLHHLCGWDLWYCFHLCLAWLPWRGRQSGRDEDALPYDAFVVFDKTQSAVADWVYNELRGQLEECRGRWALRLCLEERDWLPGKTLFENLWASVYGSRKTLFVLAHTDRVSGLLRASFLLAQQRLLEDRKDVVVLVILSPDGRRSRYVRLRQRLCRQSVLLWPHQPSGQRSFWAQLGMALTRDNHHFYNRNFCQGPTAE
Outline: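 HEK-Blue cells overexpressing human TLR7, TLR8 or TLR9 carry a SEAP reporter driven by NF-κB/AP-1 sites. Compounds (0.05 nM–50 μM) were preincubated 30 min at room temperature, then cells were stimulated with gardiquimod 7.5 μM (TLR7), R848 15.9 μM (TLR8) or ODN2006 5 nM (TLR9) for 22 h at 37 °C.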

Row | SMILES | IC50
1 | Cc1cc2c(cc1-c1cc(C)c3ncnn3c1)[nH]c(=O)n2[C@H]1CCCN(C)C1 [Example 11, (S)-6-methyl-5-(8-methyl-[1,2,4]triazolo[1,5-a]pyridin-6-yl)-1-(1-methylpiperidin-3-yl)-1,3-dihydro-2H-benzo[d]imidazol-2-one] | 9.55 µM
2 | CCN1CCC[C@H](n2c(=O)[nH]c3cc(-c4cc(C)c5ncnn5c4)c(C)cc32)C1 [Example 12, (S)-1-(1-ethylpiperidin-3-yl)-6-methyl-5-(8-methyl-[1,2,4]triazolo[1,5-a]pyridin-6-yl)-1,3-dihydro-2H-benzo[d]imidazol-2-one] | 7.64 µM
3 | Cc1cc2c(cc1-c1cc(C)c3ncnn3c1)[nH]c(=O)n2[C@H]1CCCN(C(C)C)C1 [Example 13, (S)-1-(1-isopropylpiperidin-3-yl)-6-methyl-5-(8-methyl-[1,2,4]triazolo[1,5-a]pyridin-6-yl)-1,3-dihydro-2H-benzo[d]imidazol-2-one] | 4.42 µM
4 | Cc1cc2c(cc1-c1cc(C)c3ncnn3c1)[nH]c(=O)n2[C@H]1CCCN(C2COC2)C1 [Example 14, (S)-6-methyl-5-(8-methyl-[1,2,4]triazolo[1,5-a]pyridin-6-yl)-1-(1-(oxetan-3-yl)piperidin-3-yl)-1,3-dihydro-2H-benzo[d]imidazol-2-one] | > 50 µM
5 | Cc1cc2c(cc1-c1cc(C)c3ncnn3c1)[nH]c(=O)n2[C@@H]1CCCN(C)C1 [Example 15, (R)-6-methyl-5-(8-methyl-[1,2,4]triazolo[1,5-a]pyridin-6-yl)-1-(1-methylpiperidin-3-yl)-1,3-dihydro-2H-benzo[d]imidazol-2-one] | 5.94 µM
6 | CCN1CCC[C@@H](n2c(=O)[nH]c3cc(-c4cc(C)c5ncnn5c4)c(C)cc32)C1 [Example 16, (R)-1-(1-ethylpiperidin-3-yl)-6-methyl-5-(8-methyl-[1,2,4]triazolo[1,5-a]pyridin-6-yl)-1,3-dihydro-2H-benzo[d]imidazol-2-one] | 8.95 µM
7 | Cc1cc2c(cc1-c1cc(C)c3ncnn3c1)[nH]c(=O)n2[C@@H]1CCCN(C(C)C)C1 [Example 17, (R)-1-(1-isopropylpiperidin-3-yl)-6-methyl-5-(8-methyl-[1,2,4]triazolo[1,5-a]pyridin-6-yl)-1,3-dihydro-2H-benzo[d]imidazol-2-one] | 5.69 µM
8 | CCc1cc2c(cc1-c1cc(OC)c3ncnn3c1)[nH]c(=O)n2[C@H]1CC[C@@H](N(CC)CC)CC1 [Example 169, 1-((1s,4s)-4-(diethylamino)cyclohexyl)-6-ethyl-5-(8-methoxy-[1,2,4]triazolo[1,5-a]pyridin-6-yl)-1,3-dihydro-2H-benzo[d]imidazol-2-one] | 18.3 µM
9 | CCc1cc2c(cc1-c1cc(OC)c3ncnn3c1)[nH]c(=O)n2[C@H]1CC[C@@H](NC2COC2)CC1 [Example 170, 6-ethyl-5-(8-methoxy-[1,2,4]triazolo[1,5-a]pyridin-6-yl)-1-((1s,4s)-4-(oxetan-3-ylamino)cyclohexyl)-1,3-dihydro-2H-benzo[d]imidazol-2-one] | 20 µM
10 | CCc1cc2c(cc1-c1cc(OC)c3ncnn3c1)[nH]c(=O)n2[C@@H]1CCCN(CC)C1 [Example 171, (R)-6-ethyl-1-(1-ethylpiperidin-3-yl)-5-(8-methoxy-[1,2,4]triazolo[1,5-a]pyridin-6-yl)-1,3-dihydro-2H-benzo[d]imidazol-2-one] | 10.7 µM
11 | CCc1cc2c(cc1-c1cc(OC)c3ncnn3c1)[nH]c(=O)n2[C@@H]1CCCN(C(C)C)C1 [Example 172, (R)-6-ethyl-1-(1-isopropylpiperidin-3-yl)-5-(8-methoxy-[1,2,4]triazolo[1,5-a]pyridin-6-yl)-1,3-dihydro-2H-benzo[d]imidazol-2-one] | 6.83 µM
12 | CCc1cc2c(cc1-c1cc(OC)c3ncnn3c1)[nH]c(=O)n2[C@@H]1CCCN(C2COC2)C1 [Example 173, (R)-6-ethyl-5-(8-methoxy-[1,2,4]triazolo[1,5-a]pyridin-6-yl)-1-(1-(oxetan-3-yl)piperidin-3-yl)-1,3-dihydro-2H-benzo[d]imidazol-2-one] | > 50 µM

Now from value to compound:

Row | IC50 | SMILES
13 | 7.34 µM | CCc1cc2c(cc1-c1cc(OC)c3ncnn3c1)[nH]c(=O)n2[C@@H]1CCCN(C)C1 [Example 174, (R)-6-ethyl-5-(8-methoxy-[1,2,4]triazolo[1,5-a]pyridin-6-yl)-1-(1-methylpiperidin-3-yl)-1,3-dihydro-2H-benzo[d]imidazol-2-one]
14 | 7.39 µM | CCc1cc2c(cc1-c1cc(OC)c3ncnn3c1)[nH]c(=O)n2[C@@H]1CCCN(CC2CCOCC2)C1 [Example 175, (R)-6-ethyl-5-(8-methoxy-[1,2,4]triazolo[1,5-a]pyridin-6-yl)-1-(1-((tetrahydro-2H-pyran-4-yl)methyl)piperidin-3-yl)-1,3-dihydro-2H-benzo[d]imidazol-2-one]
15 | 10.7 µM | CCc1cc2c(cc1-c1cc(OC)c3ncnn3c1)[nH]c(=O)n2[C@@H]1CCCN(CC(C)C)C1 [Example 177, (R)-6-ethyl-1-(1-isobutylpiperidin-3-yl)-5-(8-methoxy-[1,2,4]triazolo[1,5-a]pyridin-6-yl)-1,3-dihydro-2H-benzo[d]imidazol-2-one]
16 | 7.47 µM | CCc1cc2c(cc1-c1cc(OC)c3ncnn3c1)[nH]c(=O)n2[C@@H]1CCCN(CC(CC)CC)C1 [Example 178, (R)-6-ethyl-1-(1-(2-ethylbutyl)piperidin-3-yl)-5-(8-methoxy-[1,2,4]triazolo[1,5-a]pyridin-6-yl)-1,3-dihydro-2H-benzo[d]imidazol-2-one]
17 | 6.86 µM | CCCN1CCC[C@@H](n2c(=O)[nH]c3cc(-c4cc(OC)c5ncnn5c4)c(CC)cc32)C1 [Example 179, (R)-6-ethyl-5-(8-methoxy-[1,2,4]triazolo[1,5-a]pyridin-6-yl)-1-(1-propylpiperidin-3-yl)-1,3-dihydro-2H-benzo[d]imidazol-2-one]
18 | 10.3 µM | CCc1cc2c(cc1-c1cc(OC)c3ncnn3c1)[nH]c(=O)n2[C@@H]1CCCN(CC(C)(C)C)C1 [Example 180, (R)-6-ethyl-5-(8-methoxy-[1,2,4]triazolo[1,5-a]pyridin-6-yl)-1-(1-neopentylpiperidin-3-yl)-1,3-dihydro-2H-benzo[d]imidazol-2-one]
19 | 6.77 µM | CCc1cc2c(cc1-c1cc(OC)c3ncnn3c1)[nH]c(=O)n2[C@@H]1CCCN(CC2CCC2)C1 [Example 181, (R)-1-(1-(cyclobutylmethyl)piperidin-3-yl)-6-ethyl-5-(8-methoxy-[1,2,4]triazolo[1,5-a]pyridin-6-yl)-1,3-dihydro-2H-benzo[d]imidazol-2-one]
20 | 7.94 µM | CCc1cc2c(cc1-c1cc(OC)c3ncnn3c1)[nH]c(=O)n2[C@@H]1CCCN(CC2CC2)C1 [Example 182, (R)-1-(1-(cyclopropylmethyl)piperidin-3-yl)-6-ethyl-5-(8-methoxy-[1,2,4]triazolo[1,5-a]pyridin-6-yl)-1,3-dihydro-2H-benzo[d]imidazol-2-one]
21 | 33.5 µM | CCc1cc2c(cc1-c1cc(OC)c3ncnn3c1)[nH]c(=O)n2[C@@H]1CCCN(CCC(F)(F)F)C1 [Example 183, (R)-6-ethyl-5-(8-methoxy-[1,2,4]triazolo[1,5-a]pyridin-6-yl)-1-(1-(3,3,3-trifluoropropyl)piperidin-3-yl)-1,3-dihydro-2H-benzo[d]imidazol-2-one]
